Data from patent US10766857B2, “Compound having BLT inhibitory activity and composition, for preventing or treating inflammatory diseases, comprising same as active ingredient” (DONGGUK UNIVERSITY INDUSTRY-ACADEMIC COOPERATION FOUNDATION, priority 2015, dated 2020).

Assays:
[1] = system: asthma-induced mice (OVA+LPS); test: OVA+LPS-induced severe asthma mice: AHR and cell influx; format: in vivo; conditions: for AHR reduced: airway constrictor 50 mg/ml
Excerpt: Mast cells play a pivotal role in the initial reaction to asthma, and when an allergen enters the body from the outside through an airway, the mast cells are activated, thereby secreting various cytokines (interleukin-4 and interleukin-13). Due to the cytokines, the influx of inflammatory cells, the generation of mucus and the airway contraction occur. The inventors used 7-week-old (18 to 20 g) female BALB/c mice provided by Orient (Seoungnam, Korea) for the experiment to confirm the antiasthma effect, and then the asthma was induced in the mice. On the first and 14th days, 2.5 mg of an adjuvant, aluminum hydroxide gel (alum; Pierce, Rockford, Ill.) was included in […] of ovalbumin (OVA) to intraperitoneally sensitize female […] mice. On the 21st, 22nd and 23rd days of two initial sensitizations, 1% OVA was sprayed into the mice using an ultrasonic nebulizer. The compound of the present invention (LMT-696; 5 mg/kg), LY255283 (5 mg/kg, Cayman) or DMSO was intraperitoneally injected at the 1 hour before the 1% OVA spraying. On the 24th day of the initial sensitization, airway hyperresponsiveness (AHR) was detected, and on the 25th day, the mice were dissected to observe asthma phenotypes, for example, inflammatory cytokine IL-4 expression and the influx of inflammatory cells (neutrophils). In the case of lipopolysaccharide (LPS)-induced severe asthma animal models, on the 0, 1st, 2nd and 7th days, 75 μg of OVA and 1 mg of LPS were intranasally injected into Balb/c mice for sensitization. On the 14th, 15th, 21th and 22th days, 50 μg of OVA was injected into the nose for a challenge. The compound of the present invention (LMT-1013) (1, 3, 10 or 30 mg/kg), montelukast (10 mg/kg, DRS) or a control buffer (10% DMA, 5% Tween 80, 85% brine) were treated one hour before the challenge by injecting 50 μg of OVA into the nose. On the 23rd day of the initial sensitization, AHR was detected, and on the 24th day, the mice were dissected to observe a severe asthma phenotype, for example, the influx of the inflammatory cells (neutrophils). In addition, the AHR detection was performed after an airway constrictor, methacholine (6.25 to 50 mg/ml depending on conditions), was administered to the mice. The administration of the airway constrictor was performed by spraying through an inlet of the chamber using an ultrasonic nebulizer for 3 minutes. The AHR was analyzed using an enhanced pause as the indicator of the asthma phenomenon. Bronchoalveolar lavage fluid cell counts were quantified by counting cells under an optical microscope (magnification, 200×). In each analysis, 4 fields were subjected to counting, each sample was analyzed twice, and the analysis was repeated three times.

[2] = target: T1, BLT2 (Homo sapiens, UniProt Q9NPC1); test: [3H]LTB4 and BLT2 binding inhibition, CHO-BLT2 cell membrane proteins; conditions: [3H]LTB4 5 nM
T1 construct: HA; expressed in transfected cells
T1 sequence (Q9NPC1 with tags, fused parts or gaps): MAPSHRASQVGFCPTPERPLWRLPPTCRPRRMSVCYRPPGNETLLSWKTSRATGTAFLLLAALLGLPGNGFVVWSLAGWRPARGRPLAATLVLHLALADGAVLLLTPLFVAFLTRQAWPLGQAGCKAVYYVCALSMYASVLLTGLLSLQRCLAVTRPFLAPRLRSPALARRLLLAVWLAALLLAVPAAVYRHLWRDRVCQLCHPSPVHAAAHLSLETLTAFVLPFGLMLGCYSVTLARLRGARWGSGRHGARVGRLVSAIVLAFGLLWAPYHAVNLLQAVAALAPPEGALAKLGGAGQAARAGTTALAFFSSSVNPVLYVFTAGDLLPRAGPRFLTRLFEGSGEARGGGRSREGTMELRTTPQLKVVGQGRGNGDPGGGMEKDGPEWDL
Method: The inhibition of LTB4 and BLT2 binding (ligand binding affinity) was analyzed using radioactive tritium (^3H)-labeled LTB4 ([^3H]LTB4, ARC; specific activity 160.0 Ci/mmol). After 2×10^6 of CHO-BLT2 cells were plated into a 100-mm culture dish and cultured for 48 hours, an experimental method was carried out as follows: Collected cells were treated using a homogenizer a total of five times for 1 minute each to separate proteins of the cell membrane. Afterward, the cells were subjected to centrifugation at 4° C. and 45,000 rpm for 40 minutes to only collect the proteins of the cell membrane, and thereby, a protein concentration of 40 μg/45 μL was quantified. When a BLT2-containing cell membrane proteins which were quantified in the same manner was treated with the same amount of [^3H]LTB4 (5 nM), and then a different concentration (10^−9, 10^−8, 10^−7, 10^−6 or 10^−5 M) of a compound, a degree of inhibiting the tritium-labeled LTB4 and BLT2 binding was measured using a Hidex 300sL liquid scintillation counter.

[3] = target: T2, BLT2-expressing cells (CHO-BLT2 cells) (Homo sapiens, UniProt Q9NPC1); test: MTT cell growth of LTB4-stimulated BLT2-expressing cells; format: cell-based; conditions: pre-treated at 10 μM, LTB4 300 nM
T2 construct: HA; expressed in transfected cells
T2 sequence (Q9NPC1 with tags, fused parts or gaps): T1 sequence (Q9NPC1 with tags, fused parts or gaps)
Method: Cell viability according to treatment of the compounds prepared in the examples were measured by a 3-(4,5-dimethylthiazol-2-yl)-2,5-diphenyltetrazolium bromide (MTT) method.
More specifically, 1×10^4 each of the BLT2-nonexpressing cells (CHO-pcDNA3.1 cells) and BLT2-expressing cells (CHO-BLT2 cells), which were prepared in Experimental Example 1, were dispensed in a […], and cultured for 24 hours. Afterward, the culture medium was removed, a serum-free RPMI medium was added, and after two hours, the cells were pre-treated with each of the compound prepared in one of the examples (10 μM), 10 μM DMSO (compound solvent) as a control, and 10 μM 1-[5-ethyl-2-hydroxy-4-[[6-methyl-6-(1H-tetrazol-5-yl)heptyl]oxy]phenyl]-ethanone (LY255283; Cayman) as a positive control for 1 hour. Subsequently, after treatment of LTB4 (300 nM), the cells were cultured for 24 hours. 20 μL of an MTT solution (5 mg/mL, Sigma-Aldrich) was added to each well, the cells were cultured in a humid CO2 incubator at 37° C. for 4 hours, a supernatant was removed, and 200 μL of DMSO was added to each well to dissolve insoluble violet formazan crystals. Absorbance was measured using a microplate reader (Molecular Devices, Sunnyvale, Calif.) at 550 nm, and the measurement was repeated three times.

[4] = target: T3, BLT1 (Homo sapiens, UniProt Q15722); test: LTB4-induced chemotactic motility, Transwell, CHO-BLT1 cells; format: cell-based; conditions: LTB4 10 nM, serum-free, read-out: IC50 of chemotactic motility inhibition
T3 construct: expressed in transfected cells; host or cells: CHO cells stably expressing BLT1 (CHO-BLT1)
Method: (§1) Chemotactic motility was analyzed using a Transwell chamber including a polycarbonate filter (8-μm pore size, Corning Costar) with a 6.5-mm diameter. Specifically, the lower surface of the filter was coated with 10 μg/mL fibronectin in a serum-free RPMI 1640 medium at 37° C. for 1 hour. The experiment was performed by placing the filter dried and coated with RPMI 1640 media containing various amounts of LTB4 in the lower wells of the Transwell chamber, and loading CHO cells stably expressing BLT1 and BLT2 into the upper wells containing serum-free RPMI 1640 media finally at 2×10^4 cells/100 μL. To evaluate the effect of inhibitors, the cells were pre-treated with each inhibitor for 30 minutes before dispensing. After the cells were cultured at 37° C. in 5% CO2 for 3 hours, the filters were fixed with methanol for 3 minutes, and stained with hematoxylin and eosin for 10 minutes. In the experiment, the cells were BLT2-expressing cells (CHO-BLT2 cells) and BLT1-expressing cells (CHO-BLT1 cells), and LY255283 and U75302 were used as positive controls for each type of the cells, and BLT2 ligand LTB4, (300 nM), BLT1 ligand LTB4 (10 nM), and lysophosphatidic acid (LPA; 100 nM) were used as comparative controls. The chemotactic motility was quantitatively analyzed by counting the cells on the lower side of the filter under an optical microscope (magnification, 200×). For each analysis, 6 fields were subjected to counting, each sample was analyzed twice, and the analysis was repeated three times.

[5] = target: T1, BLT2; test: LTB4-induced chemotactic motility, Transwell, CHO-BLT2 cells; format: cell-based; conditions: LTB4 300 nM, serum-free, read-out: IC50 of chemotactic motility inhibition
Method: as §1

T3 sequence (Q15722 whole entry, species assumed): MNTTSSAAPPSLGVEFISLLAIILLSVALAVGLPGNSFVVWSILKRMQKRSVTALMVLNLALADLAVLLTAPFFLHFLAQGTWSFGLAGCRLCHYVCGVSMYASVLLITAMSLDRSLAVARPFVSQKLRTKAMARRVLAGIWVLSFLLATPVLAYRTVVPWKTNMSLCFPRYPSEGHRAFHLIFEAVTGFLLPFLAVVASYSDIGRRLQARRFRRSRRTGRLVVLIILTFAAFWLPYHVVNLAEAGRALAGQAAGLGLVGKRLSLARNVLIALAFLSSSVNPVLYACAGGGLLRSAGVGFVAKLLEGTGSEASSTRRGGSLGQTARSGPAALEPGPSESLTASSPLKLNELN

Compound CCCCC(=O)N(CC#Cc1ccc(C(=O)O)cc1)c1ccccc1 [LMT-1013, 4-(3-(N-phenylpentaneamido)prop-1-yn-1-yl)benzoic acid] has a neutrophils reduced ([1]; 1 mg/kg, FIGS. 13A-13C) of 51.6%, a neutrophils reduced ([1]; 1 mg/kg, FIGS. 14A-14B) of 42.2% and an AHR reduced ([1]; 1 mg/kg) of 48.6%. The neutrophils reduced ([1]; 3 mg/kg, FIGS. 14A-14B) was 48.8%, the AHR reduced ([1]; 3 mg/kg) was 52.9% and the neutrophils reduced ([1]; 10 mg/kg, FIGS. 13A-13C) was 90.3%. It also gave a neutrophils reduced ([1]; 10 mg/kg, FIGS. 14A-14B) of 71.8%, an AHR reduced ([1]; 10 mg/kg) of 83.2% and a neutrophils reduced ([1]; 30 mg/kg, FIGS. 14A-14B) of 88.3%. For the same compound, the AHR reduced ([1]; 30 mg/kg) was 87.3%, the “total cells entering the abdominal cavity of the mice” value ([1]; 1, 3, 10 and 30 mg/kg, FIGS. 14A-14B) was “reduced” and the “total cells entering the abdominal cavity of the mice” value ([1]; 1 and 10 mg/kg, FIGS. 13A-13C) was “reduced”. The IC50 [2] was 30.7 nM, the “cell growth compared with the control DMSO” value [3] was 96.3% and the IC50 [4] was at least 10000 nM. For the same compound, the IC50 [5] was 62.4 nM.
